The values below come from patent publication US11806351B2, “Use of coenzyme factor for activation of ATP production in cell” (TERA STONE Co., Ltd, priority 2018, dated 2023).

Series [1] has as its system human-derived neuroblast (Neuroblastoma) SH-SY5Y strain. The experiment in a line: fluorescence measurement of intracellular/extracellular ATP concentration in SH-SY5Y cultured cells. Type of series: cell-based. Conditions: for intracellular ATP production (fluorescence intensity): in the cells. How it is done: After the addition of Specimen 1 to cultured cells of a human-derived neuroblast (Neuroblastoma) SH-SY5Y strain, fluorescence measurement of an intracellular/extracellular ATP concentration was performed.

A further series deals with SIRT1. The series can be described thus: SIRT1 in treated nematode (preliminary experiment). Type of series: in vivo. Conditions: nematode treated for 24 hours.
Series [2] concerns astrocytes, one of glial cells of the central nerve system. The series can be described thus: fluorescence measurement of ATP amount in cultured astrocytes. It is filed as cell-based. Particulars: 1 μM. How it is done:
Specimen 1 was added to astrocytes, one of glial cells of the central nerve system, after culturing and the fluorescence measurement results are shown in FIG. 2A and FIG. 2B.

In series [3] the test system is hippocampal neurons. The series can be described thus: cultured hippocampal neurons, initial stage of growth: axons, dendrites, excitatory synapses. It is filed as cell-based, ICR mouse. How it is done:
Hippocampal neurons were collected from a juvenile (0 day after birth) ICR mouse brain and neurons were cultured on a culture dish.
Specimen 1 was added once to the cells in the initial stage of growth (on culture day 1) and after three days (on culture day 4), the number of neuron axons, dendrites, and growing synapses of the hippocampal neurons (neurons) was quantified. Specimen 1 (0.1 μM, 0.3 μM, 1.0 μM) was added once on culture day 1. Axon and Dendrite were immunostained with a tau antibody and a MAP2 antibody, respectively, three days after the addition (on culture day 4) and morphology thereof was observed.
An experiment was performed by drawing concentric circles (not shown) at an interval of 10 μm with a soma as a center and the number of axons crossing the circles was measured.
The dendrite was immunostained with a MAP2 antibody on culture day 4 and the number of branches of the dendrite was quantified. An experiment was performed by drawing concentric circles (not shown) at an interval of 10 μm with a soma as a center and the number of dendrites crossing the circles was counted.
Then, excitatory synapses on culture 14 day were immunostained with a VGLUT1 antibody and the number of synapses was quantified.

Series [4] in a line: lipophilicity, hydrophobicity and stability. It is filed as physicochemical.
Series [5] has as its system mitochondrial calcium concentration. The series can be described thus: mitochondrial calcium concentration in brain slice preparations exposed to 80K ACSF, 24 h after subcutaneous administration. Type of series: in vivo, mouse (C57B/6NL). The protocol:
(§1) Formation of brain slice preparation and measurement of calcium concentration: Used was a whole brain half-cut preparation obtained by cutting a whole brain slice (300 μm) of a mouse (C57B/6NL), pretreated with Specimen 1 for 24 hours by subcutaneous administration, at a median line. […] The resulting preparation was placed in a chamber provided on a stage of an inverted fluorescence microscope (Olympus IX71), covered with a piece of black cotton, fixed with a platinum ring, and refluxed (70 ml/hr) in ACSF aerated with 95% O2 and 5% CO2. A fluorescent image of the preparation was acquired using a 4× objective lens and respective images of the hippocampal ventral part and cerebral cortex temporal region were obtained in one screen. For the measurement of a mitochondrial calcium concentration, a change in intensity of red fluorescence (>600 nm) caused by excitation light at 580 nm was determined and for the measurement of a cytoplasmic calcium concentration, a ratio of fluorescence (>500 nm) between excitation at 360 nm and that at 380 nm was determined. A hippocampal CA1 site and a cerebral cortex were used as two regions of interest (ROI).
(§2) In water was dissolved β-NMN to give a 10 mg/kg, 30 mg/kg, or 100 mg/kg solution; Specimen 1 was dissolved in an alcohol to give a solution of 1 mg/ml and then the resulting solution was diluted with water to give a 0.01 mg/kg, 0.1 mg/kg or 1.0 mg/kg solution; and they were subcutaneously administered to mice 24 hours before the formation of the preparation (0.1 ml/10 g).
(§3) In the present test, an operation of exposing the brain preparations formed from mice administered with two drugs having respective concentrations to isotonic 80 mM KCl-ACSF (artificial cerebrospinal fluid) for 5 minutes and then returning them in normal ACSF for 5 minutes was performed three successive times to give a severe calcium load to the preparations. Variations in cytoplasmic and mitochondrial calcium concentrations at that time were measured.
FIG. 31A to FIG. 32C show the quantification results of the effects of β-NMN and Specimen 1 (TND1128) at each concentration. In FIG. 31A to FIG. 32C, FIG. 31A and FIG. 32A show the results of calculating a mitochondrial calcium concentration, as AUC (Area under the curve), for 35 minutes from 5 minutes after starting of the experiment by administration to three times exposure to 80K-ACSF and 5-minute washing (refer to FIG. 37). FIG. 31B. FIG. 31C, FIG. 32B and FIG. 32C show the drug effects on 5-minute 80K administration and 5-minute subsequent washing (1st: from 5 minutes to 15 minutes, 2nd: from 15 minutes to 25 minutes, and 3rd: from 25 minutes to 35 minutes) in the cerebral cortex (CTX) and the hippocampus (CA1), respectively (refer to FIG. 37). A significant difference test was performed using Tukey's method.

Series [6] deals with human glioma U251 cells (Sig1-R transfected cells). The experiment in a line: intracellular ATP concentration in human glioma U251 cells. Type of series: cell-based. Particulars: fluorescence measurement 6 hours after administration. The protocol: To cultured human glioma US251 cells (Sig1-R transfected cells) were added Specimens 1 and 2, respectively and intercomparison was performed between intracellular ATP concentration after addition and that without addition (Cont.). […] It is to be noted that fluorescence measurement was performed 6 hours after the administration of the specimens.

The test system of series [7] is hippocampal neurons. The experiment in a line: mature cultured hippocampal neurons: dendrite branches. Type of series: cell-based, ICR mouse. The protocol: As in Example 4, hippocampal neurons were collected from a juvenile (0 day after birth) ICR mouse brain and the neurons were cultured on a culture dish.
Specimen 1 was administered once to the mature cultured hippocampal cells (on culture day 11) and three days later (on culture day 14), the neuron axons and dendrites of the hippocampal neurons (neurons) were observed.
Concentric circles were drawn at an interval of 10 μm with a soma as a center and the number of dendrites crossing the circles was measured.

Series [8] has as its system cytoplasmic calcium concentration. The experiment in a line: cytoplasmic calcium concentration in brain slice preparations exposed to 80K ACSF, 24 h after subcutaneous administration. It is filed as in vivo, mouse (C57B/6NL). How it is done:
as §1, §2, §3

For series [9] the following is noted: cited from earlier work.
For series [10], the system named is intracerebral hemorrhage model rats. The experiment in a line: intracerebral hemorrhage model rats, amount of exercise. It is filed as in vivo, Wistar rats. Conditions: 100 μg/kg injected into the brain spot one hour after collagenase; hemorrhage day 1 and one week after. The protocol: Intracerebral hemorrhage model rats were prepared by making a small hole into the skull of adult Wistar rats (weight: from 200 to 230 g) under inhalation anesthesia, administering 1.2 μl of a physiological saline to the right brain striatum in Control group and a physiological saline comprising 0.24 U collagenase (type IV) to that of a hemorrhage group.
In order to confirm the brain cell protective action of Specimen 4 for the intracerebral hemorrhage model rats, 100 μg/kg of Specimen 4 was injected into a spot (white lozenge in the drawing) one hour after administration of collagenase, and exercise footprints of the rat were quantitatively measured. (A: Control, B: Hemorrhage group. Pay attention to color change (to black) after hemorrhage).
For the measurement of the amount of exercise, the moving image of the rats was photographed for 5 minutes. The free movement (exercise distance and exercise speed) during the latter 3 minutes of the photographing time was analyzed.

Where [11] appears, read: 0.3 μM and 1.0 μM, culture day 4.
[12] abbreviates: as printed in the method, b201, read-out: Kd.

Where two headings read alike, the source gives them in different places.

On to `CCn1c2nc(=O)n(C)c(=O)c-2cc2ccccc21` [Specimen 1], for which the “intracellular ATP production (fluorescence intensity)” value in [1] (1 μM, after 12 hours) was “the effect disappears after 12 hours”. For the same compound, the “intracellular ATP production (fluorescence intensity)” value in [1] (1 μM, immediately after addition) is given as “an increase in ATP production (increase in fluorescence intensity) is observed for 5 hours”. For the same compound, the “extracellular ATP production / ATP concentration” value in series [1] (1 μM, outside the cells) is recorded as “an increase in ATP production is observed for 5 hours”. Besides, the “morphological change of the cultured cells” value in [1] (treatment with the specimen) is given as “no morphological change of the cultured cells”. Moreover, the SIRT1 result in the series on SIRT1 is given as “significant increase”. Further, in [2] (12 hours and 24 hours after administration), the “ATP amount in the glial cells” value is listed as “significantly increased”. For the same compound, in series [2] (astrocytes), the “extracellular ATP amount” value is reported as “shows a similar tendency”. For the same compound, in the series with hippocampal neurons [3] (setting [11]), the “drug efficacy on axons at 0.3 μM and 1.0 μM” value is on record as “almost similar maximum drug efficacy”; the “drug efficacy on dendrites at 0.3 μM and 1.0 μM” value was “almost similar maximum drug efficacy”. Besides, the “number of excitatory synapses” value in the series with hippocampal neurons [3] (0.3 μM, VGLUT1 antibody, culture day 14) was “significantly increased the number of excitatory synapses to the maximum”. Further, the “dendrite extension and number of branches” value with hippocampal neurons [3] (0.1, 0.3, 1.0 μM added once on culture day 1, MAP2 antibody, culture day 4) was “concentration-dependently extended the dendrite and increased the number of branches thereof”. Further, the “elongation/growth of neuron axons and number of branches” value in the series with hippocampal neurons [3] (0.1, 0.3, 1.0 μM added once on culture day 1, tau antibody, culture day 4) is “concentration-dependently increases the elongation/growth of neuron axons and the number of branches”. The hydrophobicity entry in [4] was “highly hydrophobic”. In series [4] (chemical stability), the stability entry is “stable”. In addition, in [5] (100 mg/kg β-NMN, 1 mg/kg Specimen 1), the “physiological response of the preparations under 80K-ACSF stimulation (mitochondrial and cytoplasmic Ca2+ variations)” value is recorded as “the preparations can maintain a markedly stable physiological response”. Further, the “mitochondrial protective function / function stabilizing effect” value in series [5] (24 hours after administration) is reported as “significant mitochondrial function stabilizing effect”. In series [5] (s.c. 24 h pretreatment), the effective amount is on record as not above 1.0 mg/kg and the “strength of mitochondrial Ca2+ concentration suppressing effect relative to β-NMN, judged from the effective concentration” value was found to be 100 times. Besides, the “mitochondrial calcium concentration as AUC, cerebral cortex (CTX) and hippocampus (CA1)” value in series [5] (s.c. 24 h pretreatment, within the dose range studied, Tukey's method) is reported as “a dose response relationship”. The “mitochondrial Ca2+ increase on three times 80K ACSF exposure (time course)” value in series [5] (s.c. 24 h pretreatment, β-NMN 10, 30, 100 mg/kg, Specimen 1 0.01, 0.1, 1.0 mg/kg) is listed as “dose-dependently suppress a mitochondrial Ca^2+ increase”. For the same compound, the “ATP production amount (intracellular ATP concentration vs without addition)” value in series [6] is on record as “significantly increased the ATP production amount”. Also, the “number of dendrites in mature cultured cell” value in the series on hippocampal neurons [7] (0.3 μM and 1 μM, administered culture day 11, MAP2 antibody culture day 14) is on record as “the number of dendrites tends to increase”. In addition, the “increase in the number of dendrite branches, mature cells compared with culture day 4” value in the series on hippocampal neurons [7] (administered culture day 11, observed culture day 14) is recorded as “an increase in the number of branches was not so more marked than that caused by the drug efficacy observed in the cells on culture day 4”. Moreover, in [8] (s.c. 24 h pretreatment), the “effect on drastic increase in cytoplasmic Ca2+ concentration caused by 80K-ACSF” value is reported as “no significant effect”. Also, in series [8] (s.c. 24 h pretreatment, all doses), the “quantified cytoplasmic Ca2+ (AUC), significant difference” value is recorded as “a significant difference was not observed”. The “recovery of cytoplasmic calcium concentration variations at each 80K-ACSF administration” value in series [8] (β-NMN 30 or 100 mg/kg, Specimen 1 0.01 to 1.0 mg/kg, s.c. 24 h) is “show similar recovery”.

For the compound `CC(=O)OCOC(=O)CN(CC(=O)OCOC(C)=O)c1ccc(C)cc1OCCOc1cc(C2=c3cc4c5c(c3Oc3c2cc2c6c3CCCN6CCC2)CCC[N+]=5CCC4)ccc1N(CC(=O)OCOC(C)=O)CC(=O)OCOC(C)=O` [Xrhod-1/AM], the Kd in [9] (setting [12]) is 700 µM.

As for `Cn1c(=O)nc2n(-c3ccccc3)c3cc(Cl)ccc3cc-2c1=O` [Specimen 4], in series [10], the exercise distance result is “ameliorates an ischemic decrease” and the exercise speed entry is given as “ameliorates an ischemic decrease”.

For `CC(=O)OCOC(=O)CN(CC(=O)OCOC(C)=O)c1cc(F)ccc1OCCOc1cc2cc(-c3ncc(C(=O)OCOC(C)=O)o3)oc2cc1N(CC(=O)OCOC(C)=O)CC(=O)OCOC(C)=O` [fura-4F/AM], the Kd was 770 µM in series [9] (setting [12]) and 0.77 µM in [9] (read-out: Ca2+ chelating ability (Kd)).

What is called Kd is the constant that tells how readily two partners part at equilibrium.
